Test results: PubChem BioAssay (NCI)
Values joined by “and” are separate entries in the source; they are usually repeats but may differ in a detail not shown here. Identical values can stand only once.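 96-well plates; 48 h exposure; 5 concentrations. Endpoints by linear interpolation between flanking doses. Not reached: highest tested concentration assigned. Abbreviation: GI50, concentration required for 50% inhibition of growth. TGI: total growth inhibition.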

Key:
Test in all cases: inhibition of tumour cell growth, NCI panel, 48 h
DU-145 prostate = system: DU-145 prostate
MDA-MB-231 breast = system: MDA-MB-231 breast
MDA-MB-435 = system: MDA-MB-435
NCI/ADR-RES ovarian = system: NCI/ADR-RES ovarian

Row | SMILES | GI50 (DU-145 prostate) | TGI (DU-145 prostate) | GI50 (MDA-MB-231 breast) | TGI (MDA-MB-231 breast) | GI50 (MDA-MB-435) | TGI (MDA-MB-435) | GI50 (NCI/ADR-RES ovarian) | TGI (NCI/ADR-RES ovarian)
1 | CN(C)Cc1c[nH]c2c(NCCN)c3c(c(NCCN)c12)C(=O)c1ccccc1C3=O | 5.55 µM | 18.7 µM | 0.949 µM | 2.86 µM | 1.88 µM | 5.2 µM | 21.8 µM | > 66.1 µM
2 | O=S(=O)(CCOCc1ccc(-c2ccc3ncnc(Nc4ccc(OCc5cccc(F)c5)c(Cl)c4)c3c2)o1)c1ccccc1 | > 25 µM | > 25 µM | > 25 µM | > 25 µM | > 25 µM | > 25 µM | > 25 µM | > 25 µM
3 | NC(=O)c1cccc(Nc2nccc(Nc3cccc(F)c3)n2)c1 | 8.1 µM | > 25 µM | 17.5 µM | > 25 µM | 6.15 µM | > 25 µM | 8.75 µM | > 25 µM
4 | CC1(C)N=C(N)N=C(N)N1c1ccc(OCC(=O)Nc2ccccc2)c(Cl)c1 | 1.15 µM | > 100 µM | > 100 µM | > 100 µM | 0.522 µM | > 100 µM | > 100 µM | > 100 µM
5 | c1ccc2nc3c(cc4ccccn43)nc2c1 | > 100 µM | > 100 µM | 29.8 µM | > 100 µM | > 100 µM | > 100 µM | > 100 µM | > 100 µM
6 | O=S1(=O)NCCCN1CCNc1nccc(-c2c(-c3cccc(O)c3)nc3sccn23)n1 | 15.9 µM | > 100 µM | 16.1 µM | > 100 µM | 0.563 µM | > 100 µM | > 100 µM | > 100 µM
7 | CCC1=C[C@@H]2CN(C1)Cc1c([nH]c3ccccc13)[C@@](C(=O)OC)(c1cc3c(cc1OC)N(C)[C@H]1[C@@](O)(C(=O)OC)[C@H](OC(C)=O)[C@]4(CC)[C@@H]5C[C@@H]5CN5CC[C@]31[C@@H]54)C2 | < 0.005 µM |  | < 0.005 µM and 0.0335 µM |  |  |  | 0.111 µM and 0.662 µM | 2.82 µM and 22.6 µM
8 | CCCCCCCCCCN=C(c1ccc(N(C)C)cc1)c1ccc(N(C)C)cc1 | 2.42 µM | > 83 µM | 0.876 µM | 23.9 µM | 0.0726 µM | 0.332 µM | 0.406 µM | 42.4 µM
9 | CCN(CC)CCNC(=O)c1cn2ncnc(Oc3ccc(NC(=O)Nc4ccc(Cl)c(C(F)(F)F)c4)c(F)c3)c2c1C | 1.72 µM | 3.12 µM | 1.63 µM | 3.28 µM | 1.57 µM | 3.02 µM | 1.95 µM | 3.82 µM
10 | COc1ccc(/C=C2/CCc3cc4ccc(OC)cc4[o+]c32)c(O)c1 | 8.15 µM | 20.5 µM | 3.75 µM | 18.8 µM | 1.78 µM | 3.47 µM | 4.16 µM | 50.6 µM
11 | Cn1cc(-c2csc(-c3cn(C)c4ccccc34)n2)c2cnccc21 | 2.13 µM | 4.41 µM | 1.47 µM | 2.89 µM | 1.77 µM | 3.24 µM | 1.83 µM | 4.32 µM
12 | CCSc1nc(N)c2cn[nH]c2n1 | 46.2 µM | > 100 µM | 20.2 µM | 69.8 µM | 30.8 µM | > 100 µM | 28.4 µM | 85.6 µM
13 | CC(=O)N[C@H](C(=O)N[C@@H](CCCNC(=N)N)C(=O)N[C@@H](CCCCN)C(=O)N[C@@H](CCCNC(=N)N)C(=O)N[C@]1(C)CCCCCC/C=C\CCC[C@@](C)(C(=O)N[C@@H](CCCNC(=N)N)C(=O)N[C@@H](CCC(=O)O)C(=O)N[C@@H](CC(C)C)C(=O)N[C@H](C(=O)N[C@@H](CCC(=O)O)C(N)=O)C(C)C)NC(=O)[C@H](CCC(N)=O)NC(=O)[C@H](CC(C)C)NC(=O)[C@H](CC(C)C)NC(=O)[C@H](CCCNC(=N)N)NC(=O)[C@H](CCCNC(=N)N)NC(=O)[C@H](CC(C)C)NC1=O)C(C)C | 1.87 µM | 7.44 µM | 3.68 µM | > 50 µM | 1.42 µM | 4.28 µM | 6.82 µM | > 50 µM
14 | CCC(=C(c1ccc(OCCCN(C)C)cc1)c1ccc(OCCCN(C)C)cc1)c1ccc(Cl)cc1 | 1.01 µM | 3.16 µM | 0.413 µM | 1.07 µM | 0.292 µM | 0.556 µM | 1.95 µM | 4.14 µM
15 | COc1ccccc1/C=C/C(=O)/C=C/c1ccccc1O | 1.02 µM | 2.63 µM | 1.67 µM | 4.26 µM | 1.51 µM | 3.81 µM | 2.86 µM | 15 µM
16 | Cn1c([N+](=O)[O-])cnc1/C=C1\Oc2cc(Cl)ccc2C1=O | 0.413 µM | 4.51 µM | 0.94 µM | > 28.5 µM | 0.26 µM | 1.05 µM | 0.884 µM | > 100 µM
17 | Cn1c2ccccc2c2c(=O)c3ccccc3[nH]c21 | 33.2 µM | > 100 µM | 87.1 µM | > 100 µM | 70.2 µM | > 100 µM | 43.7 µM | > 100 µM

Row | SMILES | GI50 (DU-145 prostate) | TGI (DU-145 prostate) | GI50 (MDA-MB-231 breast) | TGI (MDA-MB-231 breast) | GI50 (MDA-MB-435) | TGI (MDA-MB-435) | GI50 (NCI/ADR-RES ovarian) | TGI (NCI/ADR-RES ovarian)
18 | CCN(CC)CCNC(=O)c1c(C)[nH]c(/C=C2\C(=O)Nc3ccc(F)cc32)c1C | 3.73 µM and 2.83 µM and 2.19 µM | > 10 µM and 20 µM and 15.5 µM | 7.2 µM and 3.26 µM and 3.52 µM | > 10 µM and 6.68 µM and 14.5 µM | 2.8 µM and 1.63 µM and 1.78 µM | > 10 µM and 5.1 µM and 8.49 µM | > 10 µM and 4.48 µM and 5.31 µM | > 10 µM and 13.4 µM and 17.9 µM
19 | C=C1CC2(OC1=O)C(=O)N(CCCN1C(=O)C3(CC(=C)C(=O)O3)c3ccccc31)c1ccccc12 (centres undefined) | 1.73 µM | 3.52 µM | 1.65 µM | 3.43 µM | 1.84 µM | 4.2 µM | 2.52 µM | 9.44 µM
20 | O=C(/C=C/c1ccccc1)CC(c1ccccc1)N1CCOCC1 (centres undefined) | 3.49 µM | 10.9 µM | 2.64 µM | 6.95 µM | 1.91 µM | 4.58 µM | 3.37 µM | 16.3 µM
21 | Cc1nc(Nc2n[nH]c3c2CN(C(=O)N[C@H](CN(C)C)c2ccccc2)C3(C)C)c2sccc2n1 | 0.156 µM and 0.317 µM | > 10 µM and 15.9 µM | 0.0856 µM and 0.0341 µM | 1.98 µM and 1.95 µM | 0.0272 µM and 0.0275 µM | > 3.52 µM and 3.35 µM | > 3.65 µM and 17.5 µM | > 100 µM
22 | CCOC1Oc2ccccc2-c2oc(=O)c(Sc3ccc(C)cc3)cc21 (centres undefined) | 31.8 µM | > 100 µM | 16.9 µM | 67.7 µM | 23.6 µM | > 100 µM | 35 µM | > 100 µM
23 | C[C@H]1[C@H](C)CC[C@]2(C(=O)NCCNCCN)CC[C@]3(C)C(=CC[C@@H]4[C@@]5(C)CCC(=O)C(C)(C)[C@@H]5CC[C@]43C)[C@H]12 | 1.8 µM | 3.35 µM | 1.66 µM | 3.08 µM | 1.73 µM | 3.23 µM | 5.16 µM | 20 µM
24 | Cc1ncc(C(=O)Nc2ccc(CN3CCN(C)CC3)c(C(F)(F)F)c2)cc1C#Cc1cnc(NC2CC2)c2ncccc12 | 0.65 µM | 1.22 µM | 0.582 µM | 1.12 µM | 0.513 µM | 0.963 µM | 2.32 µM | 5.28 µM
25 | COCCOCCOCc1n(Cc2ccc3ccccc3n2)c2ccccc2[n+]1Cc1ccc2ccccc2c1 | 0.593 µM | 12.6 µM | 0.356 µM | 1.45 µM | 0.339 µM | 1.31 µM | 23.4 µM | > 100 µM
26 | CCCCCCCCCCCCCCCCCCNC(=O)[C@H]1CSC(c2cccs2)N1 (some centres undefined) | 2.91 µM | > 50 µM | 0.826 µM | 1.59 µM | 0.77 µM | 1.53 µM | 1.06 µM | 2.31 µM
27 | O=C(O)CCC(NC(=S)S)C(=O)O.[Na+].[Zn+2] (centres undefined) | > 50 µM | > 50 µM | > 50 µM | > 50 µM | > 50 µM | > 50 µM | > 50 µM | > 50 µM
28 | C=C(CN1CCc2ccccc2C1)c1ccc(C(=O)Nc2ccccc2N)cc1 | 2.45 µM | 15.7 µM | 0.973 µM | 3.15 µM | 1.47 µM | 4.23 µM | 1.11 µM | > 9.95 µM
29 | CCCCCCCCCCCC[n+]1ccccc1 (tested in a mixture with another compound) | 1.5 µM | 9.88 µM | 1.22 µM | 3.37 µM | 0.678 µM | 2.47 µM | 14.4 µM | 52.2 µM
30 | c1ccc(Cn2cnc3ccc(-c4nc(-c5ccc6c(c5)ncn6C5CCCCC5)cn5ccnc45)cc32)cc1 | 3.04 µM | 21 µM |  |  |  |  | 1.98 µM | 5.43 µM
31 | Cc1cc(Nc2nc(SCc3ccc(C(=O)Nc4ccc(F)cc4N)cc3)nn3cccc23)n[nH]1 | 0.461 µM | > 100 µM | 0.854 µM | > 100 µM |  |  | 1.98 µM | > 100 µM
32 | CC1CCCc2c1nn(C(=O)/C=C(\N)c1ccccc1)c2N (centres undefined) | 14.5 µM | > 100 µM | 28.3 µM | > 100 µM | 10.7 µM | 26.5 µM | 6.03 µM | 39.4 µM
33 | COc1ccc(-c2nnc(N3CCN(C(=O)CN4CCN(c5ccc(OC)cc5)CC4)CC3)nc2-c2ccc(OC)cc2)cc1 | 12.2 µM | 26.5 µM | 11.7 µM | 41.2 µM | 4.01 µM | > 55.9 µM | 9.89 µM | 31.9 µM
